Assay results from US20230203485A1, “METHODS FOR MODULATING MHC-I EXPRESSION AND IMMUNOTHERAPY USES THEREOF” (Dana-Farber Cancer Institute, Inc., priority 2020, published 2023).

Legend:
[1] = tested on: HLA-I-bound peptidomes of MCC-301 cells; assay: HLA-I-bound immunopeptidome of USP7 inhibitor treated MCC-301 cells (TMT LC-MS/MS); format: cell-based, human
Protocol: Up to 40 million or 0.2 g of MCC cells were immunoprecipitated. Briefly, MCC cells were harvested and lysed in ice-cold lysis buffer containing […] (pH 8.0), 1 mM EDTA (pH 8.0), 0.1M sodium chloride, Triton X-100, 0.06M octyl β-d-glucopyranoside, 100 U/mL DNAse I, 1 mM phenylmethanesulfonyl fluoride (all from Sigma Aldrich), and protease inhibitor cocktail (Roche Diagnostics). Cell lysate was centrifuged at 12,700 rpm at 4° C. for 22 min. Lysate supernatant was coupled with Gammabind Plus sepharose beads (GE Healthcare) and incubated with 10 μg of HLA-I antibody (Clone W6/32, Santa Cruz Biotechnologies) at 4° C. under rotary agitation for 3 h. After incubation, the lysate-bead-antibody mixture was briefly centrifuged and the supernatant was discarded. Beads were washed with lysis buffer, consisting of wash buffer containing 40 mM Tris (pH 8.0), 1 mM EDTA (pH 8.0), 0.1M sodium chloride, 0.06M octyl β-d-glucopyranoside, and 20 mM Tris buffer, without protease inhibitors. Gel loading tips (Fisherbrand) were used to remove as much fluid from beads as possible. Peptides of up to three immunoprecipitations were combined, acid eluted, and analyzed using LC/MS-MS. Briefly, peptides were resuspended in 3% acetonitrile with 5% formic acid and loaded onto an analytical column (20-30 cm with 1.9 μm C18 Reprosil beads, Dr. Maisch HPLC GmbH); packed in-house). Peptides were eluted in a 6-30% gradient (EasyLC 1000 or 1200, Thermo Fisher Scientific) and analyzed on a QExactive Plus, Fusion Lumos, or Orbitrap Exploris 480 (Thermo Fisher Scientific). For Lumos measurements, peptides were also subjected to fragmentation if they were singly charged. For Orbitrap Exploris measurements (2 immunoprecipitations pooled, +/−IFN-γ, FIG. 3) and detection of the large T antigen peptide (3 immunoprecipitations of the MCC-367 cell line treated with IFN-γ) peptides were further fractionated using stage tip basic reverse phase separation with 2 punches of SDB-XC material (Empore 3M) and increasing concentrations of acetonitrile (5%, 10% and 30% in 0.1% NH4OH, pH 10). Fractions were analyzed on a Fusion Lumos or Orbitrap Exploris 480 equipped with a FAIMSpro interface. […]
Mass spectra were interpreted using Spectrum Mill software package v7.1 pre-Release (Broad Institute, Cambridge, Mass.). […] MS/MS spectra were searched against a protein sequence database that contained 90,904 entries, including all UCSC Genome Browser genes with hg19 annotation of the genome and its protein coding transcripts (52,788 entries), common human virus sequences (30,181 entries), recurrently mutated proteins observed in tumors from 26 tissues (4,595 entries), 264 common laboratory contaminants as well as protein sequences containing somatic mutations detected in MCC cell lines (3,076 entries). […]

[2] = tested on: MKL-1 control or p53 KO cells; assay: Cell cycle analysis (EdU/DAPI flow cytometry); format: cell-based, human; settings: MKL-1 TP53-WT and TP53-KO, 100 nM, three days
Protocol: 1 million MKL-1 control or p53 KO cells were plated and treated with DMSO, XL177A (100 nM) or XL177B (100 nM) for three days. During the last hour of the three-day treatment, the cells were pulsed with 10 μM EdU nucleotide. The cells were collected by centrifugation, treated with Accutase™ (Stem Cell Technologies) to break apart clumps, washed with PBS and fixed using 4% Formaldehyde solution in PBS at Room temperature for 15 mins. Cells were washed with 1% BSA in PBS and resuspended in 70% ice cold ethanol and incubated at −20° C. overnight for additional fixing and permeabilization. The cells were stored in 70% ethanol at −20° C. until the day the data was acquired. On the day of data acquisition, the cells were collected by centrifugation and washed twice with PBS. The incorporated EdU in the cells were labeled with a CLICK reaction cocktail (1 mM CuSO4, 100 μM THPTA, 100 mM sodium ascorbate, and 2.2 μM Alexa 647 azide in PBS) at room temperature with rocking for 30 minutes. The samples were then washed with 1% BSA in PBS once followed by two washes with PBS and incubated with a 1 μg/ml DAPI, 100 ng/ml RNase A solution for one hour at Room temperature to stain the DNA. The samples were then passed through strainer tubes and analyzed using a BD Fortessa analyzer. The flow cytometry data was analyzed using the FlowJo Software. […]

[3] = tested on: surface HLA-I; assay: USP7 inhibitor treatment of MKL-1 p53-WT control and p53-KO lines, surface HLA I by flow cytometry; format: cell-based, human
Protocol: For MCC-301 USP7 inhibitor experiments, two and a half million MCC cells were plated in a T25 flask and incubated with the USP7 inhibitor XL177A and control enantiomer XL177B at 10 μM, 1 μM, 100 nM, and 10 nM. Cells were incubated for 3 to 4 days. Post incubation, one million cells were treated with Versene (Gibco) to dissociate cell clusters. Surface Fc receptors were blocked with 5 μL Human TruStain FcX (Biolegend #422302). Surface HLA-I was stained with 5 μL of Pan HLA-Class I antibody (Clone W6/32, Santa Cruz Biotechnologies) for 30 minutes in dark at 4° C. Cells were washed with PBS and fixed with 4% paraformaldehyde fixation buffer (Biolegend). Cells were analyzed on a BD LSRFortessa. MCC-301 data are representative of 4 independent experiments. To perform statistical analysis, for each cell line, one-way ANOVA was first performed on the MFIs of the DMSO group and all experimental groups. Then, individual Welch t-tests were performed for each concentration, comparing the fold-changes of MFI (inhibitor)/mean MFI (DMSO control) between XL177A and XL177B.
For MKL-1 USP7 inhibitor experiments, p53-WT control lines (WT, scrambled, AAVS1) and three p53-KO lines were treated with USP7 inhibitors and assessed by flow cytometry for surface HLA I as described above for MCC-301.

[4] = tested on: surface HLA class I; assay: USP7 inhibitor treatment of MCC lines, surface HLA-I by flow cytometry; format: cell-based, human; settings: 3 days
[5] = target: USP7 (Homo sapiens, UniProt Q93009); settings: enantiomer control vs XL177A; cited from earlier work
[6] = tested on: autologous T cells; assay: IFN-γ ELISpot with patient MCC-367 PBMCs; format: cell-based, human; settings: 10 μg/ml peptide
Protocol: Matching patient peripheral blood mononuclear cells (PBMCs) from patient MCC-367 were thawed, and 10^7 cells per well were seeded in 24 well plates overnight. Cells were stimulated with 10 μg/ml of the LT antigen peptide […] (identified in the MCC-367 HLA peptidome, FIG. 3F) in complete DMEM supplemented with 10% Human serum and 20 ng/ml IL-7 (PeproTech). After 3 days of stimulation, cells were supplemented with 20 units/mL IL-2 (PeproTech). After 10 days of stimulation, cells were cytokine deprived overnight. 50,000 cells per well were stimulated in an IFN-γ ELISpot assay with 10 μg/ml of the […] peptide. DMSO and an HIV-GAG peptide were used as negative controls. CEF (Mabtech) and PHA (Sigma Aldrich) were used as positive controls (not shown). ELISpot and T cell culture methods were described in detail previously.

[7] = 100 nM, three lines (MCC-277, -290, -301)
[8] = 100 nM, two MCPyV+ lines (MCC-301 and -277)

Sequence of USP7 (Q93009 whole entry): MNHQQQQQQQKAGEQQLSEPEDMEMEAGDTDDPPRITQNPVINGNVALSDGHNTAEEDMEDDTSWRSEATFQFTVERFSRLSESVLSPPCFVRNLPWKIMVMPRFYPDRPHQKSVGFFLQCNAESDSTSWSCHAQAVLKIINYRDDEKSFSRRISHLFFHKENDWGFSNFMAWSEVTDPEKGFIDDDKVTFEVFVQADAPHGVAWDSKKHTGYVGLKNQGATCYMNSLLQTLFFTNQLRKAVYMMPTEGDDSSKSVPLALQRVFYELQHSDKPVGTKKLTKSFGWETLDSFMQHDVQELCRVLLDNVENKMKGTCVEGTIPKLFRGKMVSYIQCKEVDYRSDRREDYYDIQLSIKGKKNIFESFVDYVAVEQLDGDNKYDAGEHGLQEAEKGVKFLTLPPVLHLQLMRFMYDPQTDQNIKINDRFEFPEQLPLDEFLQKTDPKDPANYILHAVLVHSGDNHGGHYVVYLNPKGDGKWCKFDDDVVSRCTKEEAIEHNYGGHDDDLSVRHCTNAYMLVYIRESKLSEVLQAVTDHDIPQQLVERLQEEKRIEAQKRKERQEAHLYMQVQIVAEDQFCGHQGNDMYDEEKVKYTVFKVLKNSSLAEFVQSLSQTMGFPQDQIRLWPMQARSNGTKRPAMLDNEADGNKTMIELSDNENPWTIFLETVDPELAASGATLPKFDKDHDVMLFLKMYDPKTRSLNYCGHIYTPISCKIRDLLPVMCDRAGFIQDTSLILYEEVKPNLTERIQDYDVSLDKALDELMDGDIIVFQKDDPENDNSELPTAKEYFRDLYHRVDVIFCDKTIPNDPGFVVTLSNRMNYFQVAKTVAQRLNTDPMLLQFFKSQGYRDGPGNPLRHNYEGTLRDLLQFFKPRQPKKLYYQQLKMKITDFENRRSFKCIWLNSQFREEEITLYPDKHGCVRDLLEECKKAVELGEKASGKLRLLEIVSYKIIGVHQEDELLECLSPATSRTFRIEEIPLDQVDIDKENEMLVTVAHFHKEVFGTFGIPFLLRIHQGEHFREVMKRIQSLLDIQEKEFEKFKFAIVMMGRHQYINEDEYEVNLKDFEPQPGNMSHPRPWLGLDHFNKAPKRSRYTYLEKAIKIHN

CN1CCN(CCC(=O)Nc2ccc3c(=O)n(CC4(O)CCN(C(=O)[C@@H](CCCNC(=O)c5ccc6c(Cl)c7c(nc6c5)CCCC7)Cc5ccccc5)CC4)cnc3c2)CC1 [XL177A]
abundance of displayed HLA-I peptides compared to XL177B and untreated cells [1]: higher abundances of displayed peptides | frequency of peptides displayed on each respective HLA-I gene (HLA-A, -B, -C) [1]: did not affect | percent of significantly differing peptides more abundant compared to untreated cells ([1]; out of 282 peptides): 95.7% | number of peptides more abundant compared to untreated cells ([1]; out of 282 peptides whose abundance significantly differed (P<0.05)): 270 peptides | cell cycle shift [2]: slight cell cycle shifts from S to G1 phase | surface HLA-I relative to XL177B and DMSO ([3]; MKL-1 TP53-KO lines): increased | surface HLA-I relative to XL177B and DMSO ([3]; MKL-1 TP53-WT lines): increased | mean fold increase in expression of surface HLA class I relative to DMSO [4, 7]: 1.89 fold | range of fold increase in expression of surface HLA class I relative to DMSO [4, 7]: 1.60-2.27 fold | mean fold increase in expression of surface HLA-I relative to DMSO [4, 8]: 2.0 fold | range of fold increase in expression of surface HLA-I relative to DMSO [4, 8]: 1.78-2.27 fold | increase in HLA-I levels in MCC-290 ([4]; MCC-290 (MCPyV−)): more modest increase | increase in HLA I expression in MCC-320 ([4]; MCC-320 (MCPyV−)): did not exhibit a statistically significant increase and not

CN1CCN(CCC(=O)Nc2ccc3c(=O)n(CC4(O)CCN(C(=O)[C@H](CCCNC(=O)c5ccc6c(Cl)c7c(nc6c5)CCCC7)Cc5ccccc5)CC4)cnc3c2)CC1 [XL177B]
potency relative to XL177A (fold less potent) [5]: 500 fold

TSDKAIELY [peptide derived from the OBD domain of MCPyV LT, detected in the MCC-367 HLA peptidome]
reactivity of autologous T cells by ELISpot [6]: confirmed
